Assay results: patent publication US12171760B2, “Use of glucocorticoid receptor modulators to potentiate checkpoint inhibitors” (Corcept Therapeutics Incorporated, priority 2016, dated 2024)

Assays:
[1] = tested on: mouse A20 cancer cells; test: A20 tumor growth in mice, combination of CORT125281 and anti PD-1; assay type: in vivo; conditions: CORT125281 30 mg/kg orally daily in combination with mouse anti PD-1 antibody (clone RPM1-14, 10 mg/kg) i.p. twice a week; C57BL/6 mice, s.c. A20 tumors; FIG. 2
Description: (§1) Suspensions of mouse A20 cancer cells were injected subcutaneously into the left flank of 5-6 week old immunocompetent female mice (C57BL/6), ½ million cells per mouse. Tumors were allowed to grow until they reached a volume of 100 mm^3. Mice were then grouped into three groups, ten (10) per group. Group I was dosed with the anti-PD-1 vehicle (PBS, 10 ml/kg) i. p. twice a week and the CORT125281 vehicle p.o. (10% DMSO, 0.1% Tween 80 and 89.9% HPMC (0.5%), 10 ml/kg) daily. Group II was dosed with the mouse anti PD-1 antibody (clone RPM1-14, 10 mg/kg) i. p. twice a week. Group III was dosed with the mouse anti PD-1 antibody (clone RPM1-14, 10 mg/kg) i. p. twice a week and CORT125281 (a SGRM) (30 mg/kg) orally on a daily basis.
The longest (L) and shortest (S) diameters of the tumors were measured three times a week with electronic calipers and tumor volume was calculated using the formula for an ellipsoid sphere: S^2×L×(0.5). The tumor growth data are shown in FIG. 2, in which the mean tumor volume for each group of mice is plotted against the number of days of tumor growth since initiation of the treatment.

[2] = tested on: mouse CT26 cancer cells; test: CT26 tumor growth in mice, combination of CORT125134 or CORT125281 and anti CTLA4; assay type: in vivo; conditions: SGRM 30 mg/kg orally daily in combination with mouse anti CTLA4 antibody (clone 9D9, 10 mg/kg) i.p. twice a week; C57BL/6 mice, s.c. CT26 tumors; FIG. 3
Description: Suspensions of mouse CT26 cancer cells were injected subcutaneously into the left flank of 6-7 week old immunocompetent female mice (C57BL/6), ½ million cells per mouse. Tumors were allowed to grow until they reached a volume of 50-100 mm^3. Mice were then grouped into three groups, ten (10) per group. Group I was dosed with the anti-CTLA4 vehicle (PBS, 10 ml/kg) i. p. twice a week and the CORT125134 vehicle p.o. (10% DMSO, 0.1% Tween 80 and 89.9% HPMC (0.5%), 10 ml/kg) daily. Group II was dosed with the mouse anti CTLA4 antibody (clone 9D9, 10 mg/kg) i. p. twice a week. Group III was dosed with the mouse anti CTLA4 antibody (clone 9D9, 10 mg/kg) i. p. twice a week and CORT125134 (a SGRM) (30 mg/kg) orally on a daily basis. Group IV was dosed with the mouse anti CTLA4 antibody (clone 9D9, 10 mg/kg) i. p. twice a week and CORT125281 (a SGRM) (30 mg/kg) orally on a daily basis.
The longest (L) and shortest (S) diameters of the tumors were measured three times a week with electronic calipers and tumor volume was calculated using the formula for an ellipsoid sphere: S^2×L×(0.5). The tumor growth data are shown in FIG. 3, in which the mean tumor volume for each group is plotted against the number of days of tumor growth since initiation of the treatment.

[3] = tested on: breast cancer; test: Treating a breast cancer patient with the combination therapy (tumor load by enhanced magnetic resonance imaging); assay type: in vivo, human; conditions: CORT125134 200 mg once a day for eight weeks with pembrolizumab 3 mg/kg every 2 weeks
Description: A patient suffering from breast cancer is treated with pembrolizumab at a dose of 3 mg/kg every 2 weeks and CORT125134 at a dose of 200 mg once a day for eight weeks. Their tumor load is monitored using enhanced magnetic resonance imaging before, during and after the treatment.

[4] = tested on: mouse MC38 cancer cells; test: MC38 tumor growth in mice, combination of CORT125134 and anti PD-1; assay type: in vivo; conditions: CORT125134 30 mg/kg orally daily in combination with mouse anti PD-1 antibody (clone RPM1-14, 10 mg/kg) i.p. twice a week; C57BL/6 mice, s.c. MC38 tumors; FIG. 1
Description: as §1, with “MC38” for “A20”, “1” for “½”, “reach” for “reached”, “CORT125134” for “CORT125281”, “basis. The longest (L) and shortest (S) diameters of the tumors were measured three times a week with electronic calipers and tumor volume was calculated using the formula for an ellipsoid sphere: S^2×L×(0.5). The tumor growth data are shown in FIG. 1, in which the mean tumor volume as compared to the mean pre-dosing tumor volume for each group of mice is plotted against the number of days of tumor growth since initiation of the treatment.” for “basis.”

SMILES	reducing tumor growth (mean tumor volume) [1]	reducing tumor growth (mean tumor volume) [2]	reduction of the size of the tumor at the end of the treatment period [3]	reducing tumor growth (mean tumor volume as compared to the mean pre-dosing tumor volume) [4]
Cn1ncc(S(=O)(=O)N2CC[C@H]3Cc4c(cnn4-c4ccc(F)cc4)C[C@]3(C(=O)c3cc(C(F)(F)F)ccn3)C2)n1 [CORT125281, ((4aR,8aS)-1-(4-fluorophenyl)-6-((2-methyl-2H-1,2,3-triazol-4-yl)sulfonyl)-4,4a,5,6,7,8,8a,9-octahydro-1H-pyrazolo[3,4-g]isoquinolin-4a-yl)(4-(trifluoromethyl)pyridin-2-yl)methanone]	superior to both the anti PD-1 group and the vehicle group in reducing tumor growth	superior to both the anti CTLA4 group and the vehicle group in reducing tumor growth	–	–
Cn1cc(S(=O)(=O)N2CCC3=Cc4c(cnn4-c4ccc(F)cc4)C[C@]3(C(=O)c3cc(C(F)(F)F)ccn3)C2)cn1 [CORT125134, (R)-(1-(4-fluorophenyl)-6-((1-methyl-1H-pyrazol-4-yl)sulfonyl)-4,4a,5,6,7,8-hexahydro-1H-pyrazolo[3,4-g]isoquinolin-4a-yl)(4-(trifluoromethyl)pyridin-2-yl)methanone]	–	superior to both the anti CTLA4 group and the vehicle group in reducing tumor growth	more than 20%	superior to both the anti PD-1 group and the vehicle group in reducing tumor growth
